From ChEMBL document CHEMBL1201862, “PubChem BioAssay data set” (2004)
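Compound exposure: 48 hours, 5 concentrations, 96-well plates. GI50 = concentration required for 50% inhibition of growth.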 Calls of active or inactive are those of the source. Rule as the data show it: active = GI50 up to about 1.1 µM and inactive = higher.

Tests used:
Experiment in all cases: NCI anticancer screen, dose series, 48 h
M14 = tested on: M14
HCT-116 = tested on: HCT-116
RPMI-8226 = tested on: RPMI-8226
SW-620 = tested on: SW-620
SF-539 = tested on: SF-539
786-0 = tested on: 786-0
OVCAR-5 = tested on: OVCAR-5
SF-295 = tested on: SF-295
HCT-15 = tested on: HCT-15
TK-10 = tested on: TK-10
UACC-62 = tested on: UACC-62
SK-OV-3 = tested on: SK-OV-3
NCI-H226 = tested on: NCI-H226
SF-268 = tested on: SF-268
KM12 = tested on: KM12
ACHN = tested on: ACHN
HL-60 = tested on: HL-60
SK-MEL-28 = tested on: SK-MEL-28
MCF7 = tested on: MCF7

Measured: GI50

CN(C)c1ccc(/C=C2\C[C@H]3[C@@H]4CC=C5C[C@@H](O)CC[C@]5(C)[C@H]4CC[C@]3(C)[C@H]2O)cc1
15.7 µM: HCT-15
inactive: M14 18.2 µM | HCT-116 6.59 µM | RPMI-8226 29.9 µM | SW-620 24.8 µM | SF-539 10.2 µM | 786-0 18.1 µM | OVCAR-5 17.3 µM | SF-295 20 µM | TK-10 18.5 µM | UACC-62 13.7 µM | SK-OV-3 31.2 µM | NCI-H226 17.4 µM | SF-268 17 µM | KM12 36 µM | ACHN 16 µM | HL-60 31 µM | SK-MEL-28 20.4 µM | MCF7 17.4 µM

COc1ccc(/C=C/c2ccnc3ccccc23)c(OC)c1
6.49 µM: HCT-15
inactive: M14 > 10 µM | HCT-116 3.56 µM | RPMI-8226 7.33 µM | SW-620 5.94 µM | SF-539 4.34 µM | 786-0 9.25 µM | OVCAR-5 > 10 µM | SF-295 6.18 µM | TK-10 > 10 µM | UACC-62 5.16 µM | SK-OV-3 > 10 µM | NCI-H226 4.51 µM | SF-268 > 10 µM | KM12 6 µM | ACHN 9.75 µM | HL-60 3.61 µM | SK-MEL-28 > 10 µM | MCF7 3.07 µM

Cc1c2c(n(C)c1C)C(=O)C1C(C2=O)C2(C)c3ccccc3C1(C)c1ccccc12 (configuration not stated)
> 100 µM: HCT-15
inactive: M14 > 100 µM | HCT-116 > 100 µM | RPMI-8226 > 100 µM | SW-620 > 100 µM | SF-539 > 100 µM | 786-0 > 100 µM | OVCAR-5 > 100 µM | SF-295 > 100 µM | TK-10 > 100 µM | UACC-62 > 100 µM | SK-OV-3 > 100 µM | NCI-H226 > 100 µM | SF-268 > 100 µM | KM12 > 100 µM | ACHN > 100 µM | HL-60 > 100 µM | SK-MEL-28 > 100 µM | MCF7 > 100 µM

NC1CC2NC3CCCCC3NC2CC1N (configuration not stated)
inactive: M14 67.9 µM | HCT-116 24.1 µM | RPMI-8226 37.5 µM | SW-620 24.1 µM | SF-539 80.4 µM | 786-0 30 µM | OVCAR-5 42.7 µM | SF-295 31.8 µM | TK-10 41.8 µM | UACC-62 33.6 µM | SK-OV-3 28.4 µM | NCI-H226 48.9 µM | SF-268 50.8 µM | KM12 33.7 µM | ACHN 24.9 µM | HL-60 26.7 µM | SK-MEL-28 74.5 µM
active: MCF7 0.776 µM
21.7 µM: HCT-15

C=CCSC(C)=O
> 100 µM: HCT-15
inactive: M14 > 100 µM | HCT-116 > 100 µM | RPMI-8226 > 100 µM | SW-620 > 100 µM | SF-539 > 100 µM | 786-0 > 100 µM | OVCAR-5 > 100 µM | SF-295 > 100 µM | TK-10 > 100 µM | UACC-62 > 100 µM | SK-OV-3 > 100 µM | NCI-H226 > 100 µM | SF-268 > 100 µM | KM12 > 100 µM | ACHN > 100 µM | HL-60 > 100 µM | SK-MEL-28 > 100 µM | MCF7 > 100 µM

CCN1CN(c2ccccc2)C2(CCN(CCCSc3ccc(F)cc3)CC2)C1=O
inactive: M14 6.75 µM | HCT-116 4.36 µM | RPMI-8226 10.1 µM | SW-620 7.29 µM | SF-539 9.4 µM | 786-0 13.7 µM | OVCAR-5 5.19 µM | SF-295 13 µM | TK-10 12.7 µM | UACC-62 15.1 µM | SK-OV-3 15.8 µM | NCI-H226 16.8 µM | SF-268 13.9 µM | KM12 14.3 µM | ACHN 4.7 µM | HL-60 10.8 µM | SK-MEL-28 17.3 µM | MCF7 3.48 µM
11 µM: HCT-15

CC(=O)OC/C=C(\C)CCC(Br)C(C)(C)Br (configuration not stated)
> 10 µM: HCT-15
inactive: M14 > 10 µM | HCT-116 > 10 µM | RPMI-8226 > 10 µM | SW-620 > 10 µM | SF-539 > 10 µM | 786-0 > 10 µM | OVCAR-5 > 10 µM | SF-295 > 10 µM | TK-10 > 10 µM | UACC-62 > 10 µM | SK-OV-3 > 10 µM | NCI-H226 > 10 µM | SF-268 > 10 µM | KM12 > 10 µM | ACHN > 10 µM | HL-60 > 10 µM | SK-MEL-28 > 10 µM | MCF7 > 10 µM

[O-][n+]1onc2c1-c1nonc1CC2
62.8 µM: HCT-15
inactive: M14 25.1 µM | HCT-116 20.7 µM | RPMI-8226 > 100 µM | SW-620 45.1 µM | SF-539 25.3 µM | 786-0 43.7 µM | OVCAR-5 50.8 µM | SF-295 > 100 µM | TK-10 21.5 µM | UACC-62 36.6 µM | SK-OV-3 47.9 µM | NCI-H226 36.8 µM | SF-268 36.5 µM | KM12 45.3 µM | ACHN 27.1 µM | HL-60 34.5 µM | SK-MEL-28 55.2 µM | MCF7 28.5 µM

CC(=O)c1ccc2c(c1)oc(=O)n2CCN1CCCCC1
inactive: M14 > 100 µM | HCT-116 > 100 µM | RPMI-8226 > 100 µM | SW-620 > 100 µM | SF-539 > 100 µM | 786-0 > 100 µM | OVCAR-5 > 100 µM | SF-295 > 100 µM | TK-10 > 100 µM | UACC-62 > 100 µM | SK-OV-3 > 100 µM | NCI-H226 > 100 µM | SF-268 > 100 µM | KM12 > 100 µM | ACHN > 100 µM | HL-60 > 100 µM | SK-MEL-28 > 100 µM | MCF7 > 100 µM
> 100 µM: HCT-15

CN1CN(c2ccccc2)C2(CCN(CC(C)(c3ccc(F)cc3)C3OCCCO3)CC2)C1=O (configuration not stated)
inactive: M14 16.9 µM | HCT-116 14.9 µM | RPMI-8226 10.2 µM | SW-620 20.6 µM | SF-539 13.2 µM | 786-0 20.4 µM | OVCAR-5 8.69 µM | SF-295 18.4 µM | TK-10 15.5 µM | UACC-62 17.9 µM | SK-OV-3 26.4 µM | NCI-H226 18.9 µM | SF-268 17.8 µM | KM12 15.5 µM | ACHN 17.7 µM | HL-60 14.7 µM | SK-MEL-28 16.8 µM | MCF7 13 µM
15.3 µM: HCT-15

Cc1c(C#N)c(N)[nH]c(=S)c1C#N
> 100 µM: HCT-15
inactive: HCT-116 > 100 µM | RPMI-8226 > 100 µM | SW-620 > 100 µM | SF-539 > 100 µM | 786-0 > 100 µM | OVCAR-5 > 100 µM | SF-295 > 100 µM | TK-10 > 100 µM | UACC-62 > 100 µM | NCI-H226 > 100 µM | SF-268 > 100 µM | KM12 > 100 µM | ACHN > 100 µM | HL-60 > 100 µM | SK-MEL-28 > 100 µM | MCF7 > 100 µM
